Laboratory results: ChEMBL document CHEMBL3124747, “Formosusin A, a novel specific inhibitor of mammalian DNA polymerase β from the fungus Paecilomyces formosus” (Bioorg Med Chem, 2014)
pIC50: −log10 of the molar value.

Tests used:
[1] = target: Inosine-5'-monophosphate dehydrogenase 2 (Mus musculus, UniProt P24547); experiment: Inhibition of mouse IMP dehydrogenase 2 assessed as inhibition of incorporation of dTTP into poly(dA)/oligo(dT)18 after 60 mins
[2] = target: Human immunodeficiency virus type 1 reverse transcriptase (Human immunodeficiency virus 1, UniProt Q72547); experiment: Inhibition of HIV-1 reverse transcriptase assessed as inhibition of incorporation of dTTP into poly(rA)/oligo(dT)18 after 60 mins
[3] = Inhibition of Escherichia coli polymerase DNA polymerase 1 klenow fragment assessed as inhibition of incorporation of dTTP into poly(dA)/oligo(dT)18 after 60 mins
[4] = target: T1, DNA polymerase alpha catalytic subunit (Drosophila melanogaster, UniProt P26019); experiment: Inhibition of fruit fly DNA polymerase alpha assessed as inhibition of incorporation of dTTP into poly(dA)/oligo(dT)18 after 60 mins
T1 sequence (P26019 whole entry): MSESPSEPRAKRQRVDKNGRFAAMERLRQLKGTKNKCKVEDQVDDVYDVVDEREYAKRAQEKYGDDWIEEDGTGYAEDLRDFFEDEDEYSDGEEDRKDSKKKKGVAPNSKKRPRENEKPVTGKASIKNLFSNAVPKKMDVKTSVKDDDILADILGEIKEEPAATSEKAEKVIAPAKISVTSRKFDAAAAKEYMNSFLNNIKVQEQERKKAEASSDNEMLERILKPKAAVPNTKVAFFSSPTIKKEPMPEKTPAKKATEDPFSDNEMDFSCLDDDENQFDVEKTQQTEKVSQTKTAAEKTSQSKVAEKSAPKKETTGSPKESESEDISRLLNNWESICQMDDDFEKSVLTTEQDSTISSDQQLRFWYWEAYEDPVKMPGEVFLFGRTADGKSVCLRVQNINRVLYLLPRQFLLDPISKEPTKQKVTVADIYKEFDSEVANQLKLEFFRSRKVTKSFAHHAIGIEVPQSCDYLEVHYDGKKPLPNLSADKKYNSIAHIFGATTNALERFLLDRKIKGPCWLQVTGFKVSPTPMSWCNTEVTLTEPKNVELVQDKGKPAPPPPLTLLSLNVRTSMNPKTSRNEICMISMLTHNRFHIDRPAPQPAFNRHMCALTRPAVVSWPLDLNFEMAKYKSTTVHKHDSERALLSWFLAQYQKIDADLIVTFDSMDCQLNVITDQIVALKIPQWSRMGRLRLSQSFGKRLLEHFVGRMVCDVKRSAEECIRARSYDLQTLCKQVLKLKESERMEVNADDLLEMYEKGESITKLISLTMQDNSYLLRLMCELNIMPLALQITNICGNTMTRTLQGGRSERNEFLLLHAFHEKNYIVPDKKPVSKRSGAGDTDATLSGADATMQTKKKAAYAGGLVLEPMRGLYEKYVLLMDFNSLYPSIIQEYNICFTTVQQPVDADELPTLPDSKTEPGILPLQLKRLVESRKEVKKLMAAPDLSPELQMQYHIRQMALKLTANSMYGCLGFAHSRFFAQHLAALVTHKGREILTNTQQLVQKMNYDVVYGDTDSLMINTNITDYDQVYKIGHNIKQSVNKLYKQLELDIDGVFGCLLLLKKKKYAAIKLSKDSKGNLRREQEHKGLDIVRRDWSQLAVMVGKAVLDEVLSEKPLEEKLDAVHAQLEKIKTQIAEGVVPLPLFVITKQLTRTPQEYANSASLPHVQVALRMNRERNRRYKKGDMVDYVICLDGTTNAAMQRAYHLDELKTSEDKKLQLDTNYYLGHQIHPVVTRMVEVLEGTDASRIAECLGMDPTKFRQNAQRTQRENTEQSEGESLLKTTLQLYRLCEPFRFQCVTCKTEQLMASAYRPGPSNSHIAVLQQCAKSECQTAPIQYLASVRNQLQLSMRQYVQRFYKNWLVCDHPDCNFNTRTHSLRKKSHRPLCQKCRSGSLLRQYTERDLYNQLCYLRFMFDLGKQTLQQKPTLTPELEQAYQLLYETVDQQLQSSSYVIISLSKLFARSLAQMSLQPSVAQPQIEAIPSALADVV

[5] = target: T2, DNA polymerase delta catalytic subunit (Homo sapiens, UniProt P28340); experiment: Inhibition of DNA polymerase delta isolated from human MOLT4 cells assessed as inhibition of incorporation of dTTP into poly(dA)/oligo(dT)18 after 60 mins; type: cell-free, MOLT-4
T2 sequence (P28340 whole entry): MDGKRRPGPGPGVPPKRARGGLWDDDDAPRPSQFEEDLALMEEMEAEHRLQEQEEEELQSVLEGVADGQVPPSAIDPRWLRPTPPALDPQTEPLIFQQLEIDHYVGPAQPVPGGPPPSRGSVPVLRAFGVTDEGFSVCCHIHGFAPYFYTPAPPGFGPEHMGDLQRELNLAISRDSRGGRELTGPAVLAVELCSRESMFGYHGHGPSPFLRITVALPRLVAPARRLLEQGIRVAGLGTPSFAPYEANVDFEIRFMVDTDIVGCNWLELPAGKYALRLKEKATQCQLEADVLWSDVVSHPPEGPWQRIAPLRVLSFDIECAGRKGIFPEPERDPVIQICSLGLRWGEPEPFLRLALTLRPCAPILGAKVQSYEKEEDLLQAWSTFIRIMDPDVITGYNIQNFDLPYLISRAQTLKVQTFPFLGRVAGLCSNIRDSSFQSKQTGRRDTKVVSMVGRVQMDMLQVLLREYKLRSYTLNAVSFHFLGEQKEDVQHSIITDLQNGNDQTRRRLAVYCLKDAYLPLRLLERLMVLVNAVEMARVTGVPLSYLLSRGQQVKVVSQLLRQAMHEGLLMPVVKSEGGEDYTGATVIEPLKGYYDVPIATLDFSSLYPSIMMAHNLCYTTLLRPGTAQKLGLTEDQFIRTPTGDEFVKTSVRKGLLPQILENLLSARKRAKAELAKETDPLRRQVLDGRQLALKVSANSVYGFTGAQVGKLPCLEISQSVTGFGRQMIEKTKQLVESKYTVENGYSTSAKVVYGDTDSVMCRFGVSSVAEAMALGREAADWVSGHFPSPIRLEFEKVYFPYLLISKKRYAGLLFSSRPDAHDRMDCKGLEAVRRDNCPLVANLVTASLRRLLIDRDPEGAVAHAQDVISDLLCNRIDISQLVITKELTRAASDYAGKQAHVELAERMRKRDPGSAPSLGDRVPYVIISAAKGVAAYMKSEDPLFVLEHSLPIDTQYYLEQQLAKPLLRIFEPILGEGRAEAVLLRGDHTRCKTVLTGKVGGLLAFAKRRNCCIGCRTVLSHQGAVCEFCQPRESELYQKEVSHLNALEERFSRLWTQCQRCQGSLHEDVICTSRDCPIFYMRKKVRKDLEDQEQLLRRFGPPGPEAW

[6] = Inhibition of human His-tagged DNA polymerase gamma expressed in baculovirus assessed as inhibition of incorporation of dTTP into poly(dA)/oligo(dT)18 after 60 mins

Measured: pIC50

Chain of Inosine-5'-monophosphate dehydrogenase 2 (P24547 whole entry): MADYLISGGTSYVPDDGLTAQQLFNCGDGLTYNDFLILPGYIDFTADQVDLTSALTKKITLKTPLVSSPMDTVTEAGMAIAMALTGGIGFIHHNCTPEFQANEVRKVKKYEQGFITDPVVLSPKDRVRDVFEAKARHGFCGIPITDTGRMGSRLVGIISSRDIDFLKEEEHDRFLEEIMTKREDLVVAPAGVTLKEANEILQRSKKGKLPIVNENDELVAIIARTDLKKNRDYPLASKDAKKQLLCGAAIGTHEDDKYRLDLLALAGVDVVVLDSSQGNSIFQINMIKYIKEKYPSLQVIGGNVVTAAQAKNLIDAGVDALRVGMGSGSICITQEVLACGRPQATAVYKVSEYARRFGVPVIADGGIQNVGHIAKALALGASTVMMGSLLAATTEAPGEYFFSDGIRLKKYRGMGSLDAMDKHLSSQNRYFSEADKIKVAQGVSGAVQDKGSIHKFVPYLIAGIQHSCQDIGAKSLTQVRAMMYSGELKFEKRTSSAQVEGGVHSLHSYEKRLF

CCCCC(=O)/C=C(C)/C=C/CCC(=O)N1CCCC1=O
< 3.70: all assays above

CCCC[C@@H](O)/C=C(C)/C=C/C=C\C(=O)N1CCCC1=O
< 3.70: all assays above

CCCC[C@@H](O)/C=C(C)/C=C/C=C/C(=O)N1CCCC1=O [PECILOCIN]
< 3.70: all assays above

CC(/C=C/CCC(=O)N1CCCC1=O)=C\C1CCCCO1 (centres undefined)
< 3.70: all assays above
